Laboratory results as given in patent US11214803B2, “Modulators of YAP1 expression” (Ionis Pharmaceuticals, Inc., priority 2019, dated 2022).
Strand notation (5' to 3'): a small letter for the sugar, then the base; units joined by * are phosphorothioate-linked, units joined directly phosphodiester-linked; [ ] holds rarer units or linkages, { } end groups; capitals alone tell only the bases. e = 2'-O-(2-methoxyethyl) (MOE); k = constrained ethyl (cEt); [5mC] = 5-methylcytosine; d = 2'-deoxy (DNA); m = 2'-O-methyl

test system: Yap1 mRNA; test: Antisense inhibition of human Yap1 in SNU-449 cells by modified oligonucleotides, single dose (Example 5, RTS36584); assay type: cell-based; details: Table 39; SNU-449 cells, 10,000 cells per well, free uptake, 2,000 nM oligonucleotide, approx. 48 hours; RTS36584; normalized to RIBOGREEN; Yap1 mRNA relative to untreated control
Procedure, shortened: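 Each modified oligonucleotide is applied by free uptake to SNU-449 cultures at 2,000 nM, and total RNA is harvested around 48 h later. Yap1 transcript, quantified with the RTS36584 set and corrected for RIBOGREEN RNA content, is given as % UTC. Asterisks mark sequences overlapping the amplicon.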

Point of comparison: “1198452 (kA*d[5mC]*dT*dA*dA*dG*dT*dA*dA*dG*dG*kT*eT*kT*e[5mC]*k[5mC]; antisense) [Compound 1198452]”, “YAP1 (% UTC)” value 38 % UTC. Against it:
- 1198447 (kT*dA*dA*dG*dG*dT*dT*dT*d[5mC]*d[5mC]*d[5mC]*kA*eG*kA*eT*kT; antisense) [Compound 1198447] — higher, 63 % UTC
- 1198392 (kA*dA*d[5mC]*dA*d[5mC]*dT*dG*dA*dG*dG*dT*kA*eT*kA*eA*k[5mC]; antisense) [Compound 1198392] — higher, 48 % UTC
- 1095398 (antisense k[5mC]*dT*dG*dA*dG*dG*dT*dA*dT*dA*dA*k[5mC]*eT*kG*eG*kG) [Compound 1095398] — the same, 38 % UTC
- 1198454 (kA*dG*dA*d[5mC]*dT*dA*dA*dG*dT*dA*dA*kG*eG*kT*eT*kT; antisense) [Compound 1198454] — higher, 39 % UTC

same assay, conditions: Table 40 (separate experiment); SNU-449 cells, 10,000 cells per well, free uptake, 2,000 nM oligonucleotide, approx. 48 hours; RTS36584; normalized to RIBOGREEN; Yap1 mRNA relative to untreated control

Point of comparison: “1198778 (kA*eT*kA*dT*dT*dG*d[5mC]*dA*dA*dT*d[5mC]*dT*eG*eT*k[5mC]*kT; antisense) [Compound 1198778]”, “YAP1 (% UTC)” value 55 % UTC. Against it:
- 1198782 (antisense kT*eG*kT*dA*dA*dT*dA*dT*dT*dG*d[5mC]*dA*eA*eT*k[5mC]*kT) [Compound 1198782] — higher, 61 % UTC
- 1198718 (kG*eA*kA*dA*dT*dT*dG*dT*d[5mC]*dT*d[5mC]*dA*eT*eG*k[5mC]*k[5mC]; antisense) [Compound 1198718] — lower, 9 % UTC

same assay, conditions: Table 41; SNU-449 cells, 10,000 cells per well, free uptake, 2,000 nM modified oligonucleotide, approximately 48 hours; RTS36584; normalized to RIBOGREEN; Yap1 mRNA relative to untreated control cells

Point of comparison: “1198768 (kA*eT*kA*dT*dG*dG*dT*dT*dT*dT*dG*dT*eG*eT*kG*kT; antisense) [Compound 1198768]”, “YAP1 (% UTC)” value 61 % UTC. Against it:
- 1198639 (kT*kA*dG*dA*dG*dT*dA*dT*dG*dT*dG*dG*k[5mC]*eA*kA*eT; antisense) [Compound 1198639] — lower, 32 % UTC

same assay, conditions: Table 42 (separate experiment); SNU-449 cells, 10,000 cells per well, free uptake, 2,000 nM modified oligonucleotide, approximately 48 hours; RTS36584; normalized to RIBOGREEN; Yap1 mRNA relative to untreated control cells

Point of comparison: “1198210 (kT*kT*dA*dG*dA*dG*dT*dA*dT*dG*dT*eG*eG*e[5mC]*kA*kA; antisense) [Compound 1198210]”, “YAP1 (% UTC)” value 28 % UTC. Against it:
- 1198708 (kT*kA*dA*dG*dT*dA*dA*dG*dG*dT*dT*dT*k[5mC]*e[5mC]*k[5mC]*eA; antisense) [Compound 1198708] — higher, 34 % UTC

same assay, conditions: Table 43 experiment; SNU-449 cells, 10,000 cells per well, free uptake, 2,000 nM, approximately 48 hours; RTS36584; Yap1 mRNA normalized to RIBOGREEN, relative to untreated control cells

Point of comparison: “1198265 (kT*kT*dT*dA*dT*dG*dT*dA*dA*dT*dA*eT*eT*eG*k[5mC]*kA; antisense) [Compound 1198265]”, “YAP1 (% UTC)” value 111 % UTC. Against it:
- 1198470 (antisense kT*kA*dT*dT*dA*dG*dA*dG*dT*dA*dT*eG*kT*eG*kG*e[5mC]) [Compound 1198470] — lower, 17 % UTC
- 1198256 (kG*kA*d[5mC]*dA*dA*d[5mC]*dT*d[5mC]*dT*dT*dA*eT*eA*eT*kG*kG; antisense) [Compound 1198256] — lower, 78 % UTC

same assay, conditions: Table 44 experiment; SNU-449 cells, 10,000 cells per well, free uptake, 2,000 nM, approximately 48 hours; RTS36584; Yap1 mRNA normalized to RIBOGREEN, relative to untreated control cells

Point of comparison: “1198475 (antisense kG*kG*dT*dA*dT*dA*dA*d[5mC]*dT*dG*dG*eG*k[5mC]*eA*kA*eA) [Compound 1198475]”, “YAP1 (% UTC)” value 25 % UTC. Against it:
- 1198537 (k[5mC]*kT*dA*dA*dG*dT*dA*dA*dG*dG*dT*eT*kT*e[5mC]*k[5mC]*e[5mC]; antisense) [Compound 1198537] — lower, 24 % UTC
- 1095623 (antisense k[5mC]*kA*d[5mC]*dT*dG*dA*dG*dG*dT*dA*dT*eA*kA*e[5mC]*kT*eG) [Compound 1095623] — higher, 57 % UTC

same assay, conditions: Table 45; Yap1 mRNA as percent of untreated control, SNU-449 cells, single dose

Point of comparison: “1198956 (kT*kA*dT*dG*dT*dA*dA*dT*dA*dT*dT*kG*d[5mC]*kA*dA*kT; antisense) [Compound 1198956]”, “YAP1 (% UTC)” value 76 % UTC. Against it:
- 1198935 (kG*kA*dT*dT*dT*dA*dG*dG*dA*dT*dG*k[5mC]*dA*kT*dG*kG; antisense) [Compound 1198935] — lower, 18 % UTC
- 1198893 (kA*kA*dA*dT*dT*dG*dT*d[5mC]*dT*d[5mC]*dA*kT*dG*k[5mC]*d[5mC]*kT; antisense) [Compound 1198893] — lower, 58 % UTC
- 1198938 (kT*k[5mC]*dA*dG*dA*dT*dT*dT*dA*dG*dG*kA*dT*kG*d[5mC]*kA; antisense) [Compound 1198938] — lower, 59 % UTC
- 1198914 (kT*kT*dT*dT*dA*d[5mC]*dA*dT*dT*dA*dG*kG*dA*kA*d[5mC]*kA; antisense) [Compound 1198914] — lower, 68 % UTC

same assay, conditions: Table 46; Yap1 mRNA as percent of untreated control, SNU-449 cells, single dose

Point of comparison: “1198818 (antisense kT*kA*dT*dT*dA*dG*dA*dG*dT*dA*dT*kG*eT*kG*eG*k[5mC]) [Compound 1198818]”, “YAP1 (% UT)” value 15 % UT. Against it:
- 1198812 (antisense kA*kT*dA*dT*dG*dG*dA*dA*dA*dT*dT*kG*eT*k[5mC]*eT*k[5mC]) [Compound 1198812] — higher, 26 % UT
- 1198831 (k[5mC]*kA*d[5mC]*dT*dT*dT*dT*dA*d[5mC]*dA*dT*kT*eA*kG*eG*kA; antisense) [Compound 1198831] — lower, 12 % UT
- 1198846 (kT*kT*dA*dG*dG*dA*dT*dG*d[5mC]*dA*dT*kG*eG*kT*eT*kT; antisense) [Compound 1198846] — higher, 34 % UT

same assay, conditions: Table 48; Yap1 mRNA level relative to untreated control; modified oligonucleotides targeting SEQ ID NO.: 1 and 2

Point of comparison: “1198313 (kA*kG*k[5mC]*dA*d[5mC]*dT*dT*dT*dT*dA*d[5mC]*dA*kT*eT*kA*eG; antisense) [Compound 1198313]”, “YAP1 (% UT)” value 31 % UT. Against it:
- 1198328 (kA*kT*kT*dT*dA*dG*dG*dA*dT*dG*d[5mC]*dA*kT*eG*kG*eT; antisense) [Compound 1198328] — higher, 42 % UT
- 1097247 (antisense kT*kA*kA*dA*dG*dT*dG*dT*dA*dT*dG*dT*d[5mC]*kA*kG*kA) [Compound 1097247] — lower, 9 % UT
- 1198326 (kT*kT*kA*dG*dG*dA*dT*dG*d[5mC]*dA*dT*dG*kG*eT*kT*eT; antisense) [Compound 1198326] — higher, 84 % UT
- 1197218 (antisense kT*kT*kT*dA*dA*dA*dG*dT*dG*dT*dA*dT*dG*kT*k[5mC]*kA) [Compound 1197218] — lower, 29 % UT
- 1198344 (kA*kT*kA*dT*dT*dG*d[5mC]*dA*dA*dT*d[5mC]*dT*kG*eT*k[5mC]*eT; antisense) [Compound 1198344] — higher, 55 % UT

same assay, conditions: Table 49; Yap1 mRNA level relative to untreated control; modified oligonucleotides targeting SEQ ID NO.: 1 and 2

Point of comparison: “1198353 (kA*kG*kT*dG*dT*dA*dT*dG*dT*d[5mC]*dA*dG*kA*eA*kG*eA; antisense) [Compound 1198353]”, “YAP1 (% UT)” value 8 % UT. Against it:
- 1198577 (antisense k[5mC]*kT*kT*dT*dG*dG*dA*dA*dG*dA*dT*d[5mC]*kT*kG*kA*eA) [Compound 1198577] — higher, 40 % UT

same assay, conditions: Table 50; Yap1 mRNA remaining as percent of untreated control (UT), SNU-449 cells, single dose

Point of comparison: “1197286 (kA*kT*kA*dT*mU*dA*dG*dA*dG*dT*dA*dT*dG*kT*kG*kG) [Compound 1197286]”, “YAP1 (% UT)” value 43 % UT. Against it:
- 1197235 (antisense kA*kT*kT*dA*mG*dA*dG*dT*dA*dT*dG*dT*dG*kG*k[5mC]*kA) [Compound 1197235] — lower, 16 % UT

same assay, conditions: Table 51; Yap1 mRNA remaining as percent of untreated control (UT), SNU-449 cells, single dose

Point of comparison: “1197303 (k[5mC]*kT*kT*dA*mU*dA*dT*dG*dG*dT*dT*dT*dT*kG*kT*kG; antisense) [Compound 1197303]”, “YAP1 (% UT)” value 72 % UT. Against it:
- 1197279 (kT*kT*kA*dG*mA*d[5mC]*dT*dA*dA*dG*dT*dA*dA*kG*kG*kT) [Compound 1197279] — lower, 54 % UT
- 1197255 (antisense kT*kT*kT*dA*mG*dG*dA*dT*dG*d[5mC]*dA*dT*dG*kG*kT*kT) [Compound 1197255] — lower, 38 % UT
- 1200784 (kT*kG*kT*d[5mC]*dT*mC*dA*dT*dG*d[5mC]*d[5mC]*dT*dT*kA*kT*kA; antisense) [Compound 1200784] — lower, 19 % UT
- 1197307 (kA*kT*kA*dT*mU*dG*d[5mC]*dA*dA*dT*d[5mC]*dT*dG*kT*k[5mC]*kT; antisense) [Compound 1197307] — higher, 88 % UT

same assay, conditions: Table 52; Yap1 mRNA, modified oligonucleotides targeting SEQ ID NO: 1 and 2

Point of comparison: “1200803 (kG*kG*kT*dA*dT*mA*dA*d[5mC]*dT*dG*dG*dG*d[5mC]*kA*kA*kA; antisense) [Compound 1200803]”, “YAP1 (% UT)” value 22 % UT. Against it:
- 1200836 (kT*k[5mC]*kA*dG*dA*mU*dT*dT*dA*dG*dG*dA*dT*kG*k[5mC]*kA; antisense) [Compound 1200836] — higher, 72 % UT
- 1200825 (kT*kG*k[5mC]*dT*dT*mU*dG*dG*dA*dA*dG*dA*dT*k[5mC]*kT*kG; antisense) [Compound 1200825] — higher, 39 % UT
- 1200846 (kG*kA*k[5mC]*dA*dA*mC*dT*d[5mC]*dT*dT*dA*dT*dA*kT*kG*kG; antisense) [Compound 1200846] — higher, 38 % UT

same assay, conditions: Yap1 mRNA, percent of untreated control; modified oligonucleotides targeting SEQ ID NO: 1 and 2; Table 47

Point of comparison: “1198858 (k[5mC]*kT*d[5mC]*dT*dT*dA*dT*dA*dT*dG*dG*kT*eT*kT*eT*kG) [Compound 1198858]”, “YAP1 (% UT)” value 29 % UT. Against it:
- 1198877 (kT*kT*dA*dA*dA*dG*dT*dG*dT*dA*dT*kG*eT*k[5mC]*eA*kG; antisense) [Compound 1198877] — lower, 11 % UT
- 1198861 (CAACTCTTATATGGTT; chemistry not fully specified) [Compound 1198861] — higher, 100 % UT
